Results reported in paper PMC3421993 (Journal of Experimental Botany, 2012).

Biological target: T1, HRP (horseradish peroxidase) (Armoracia rusticana, UniProt P00433)
T1 sequence (P00433 31-338): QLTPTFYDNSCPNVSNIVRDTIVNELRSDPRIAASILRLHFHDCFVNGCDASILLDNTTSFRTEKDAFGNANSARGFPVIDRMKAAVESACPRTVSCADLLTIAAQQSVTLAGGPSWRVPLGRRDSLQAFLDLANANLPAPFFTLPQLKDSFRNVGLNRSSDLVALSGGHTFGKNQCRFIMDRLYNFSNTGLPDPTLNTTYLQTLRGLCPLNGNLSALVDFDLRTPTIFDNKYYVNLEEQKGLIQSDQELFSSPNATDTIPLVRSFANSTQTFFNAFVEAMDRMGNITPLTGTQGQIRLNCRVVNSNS
Test: spectrophotometric peroxidase assay, […] nm
Assay type: biochemical
Conditions: read-out: K m (mM) / Pyrogallol; 3.3 mM H2O2; 100 mM Na-phosphate pH 6.5

- Km: 1.1 ± 0.1 mM
Structure (SMILES): Oc1cccc(O)c1O [pyrogallol]
